Experimental data taken from patent EP0194571A1, “Heterocyclic disulfides, process for their preparation and pharmaceutical preparations containing them” (HOECHST AKTIENGESELLSCHAFT, priority 1985, dated 1986).

Columns and labels:
[1] = tested on: zelluläre Immunantwort (DTH-Reaktion) gegen Schafserythrozyten; assay: Delayed type hypersensitivity (DTH) reaction against sheep erythrocytes, foot swelling in mice; type: in vivo, NMRI-Mäuse; conditions: relative to maximal activation by compound of Beispiel 8 = 100 %; Dosis 100 mg/kg, 1 x i.p. Tag 0
[2] = tested on: B16-Melanom; assay: Tumour defence against B16 melanoma (lung metastases after removal of primary tumour), survival time; type: in vivo, C57B1/6 Mäusen; conditions: control 26 Tagen
Procedure: Bei weiblichen C57B1/6 Mäusen (10 Tiere/Gruppe) mit einem Gewicht von 18 - 20 g wurde mit 2 x 10^5 lebenden B16-Melanomzellen ein Primärtumorwachstum induziert. Nach Ausprägung einer bestimmten Tumorgröße (0.65 cm im Durchmesser) wurde der Primärtumor entfernt. Die unbehandelten Tiere starben dann an Metastasen in der Lunge. Nach der Tumorinduktion wurden die Tiere an den Tagen 3, 5, 7, 9, 11, und 13 nach Amputation des Primärtumors mit 50, 100 und 200 mg/kg der nach Beispiel 8 erhaltenen Prüfsubstanz intraperitoneal behandelt. Aus der Absterberate nach Amputation des Primärtumors durch die Entwicklung von Lungenmetastasen lassen sich entsprechend die mittleren ffberlebenszeiten berechnen. Danach sterben die Tiere der Kontrollgruppe zu 50 % nach 26 Tagen. Die mit der Prüfsubstanz behandelten Gruppen zeigten (vgl. Tabelle 10) mit den entsprechenden Dosierungen eine signifikante Erhöhung der mittleren Überlebenszeit auf 43, 40 und 35 Lage.

[3] = tested on: Maus-Peritonealmakrophagen; assay: Activation of mononuclear phagocytes: oxidative metabolism (chemiluminescence) of peritoneal macrophages from treated mice; type: in vivo, NMRI-Mäuse; conditions: relative to maximal activation by compound of Beispiel 8 = 100 %; 100 mg/kg i.p.
Procedure: (§1) Hier wurde der Einfluß der nach Ausführungsbeispiel 8 erhaltenen Prüfsubstanz auf die Stimulation von Peritonealmakrophagen bei 6- 8 Wochen alten NMRI-Mäusen untersucht. Mäuseweibchen erhielten auf parenteralem oder oralem Wege die Prüfsubstanz in einer Dosis von 25 mg/kg, 50 mg/kg, 100 mg/kg und 200 mg/kg. Der Kontrollgruppe wurde gepufferte Kochsalzlösung verabreicht. Drei Tage nach den Injektionen wurden die Mäuse getötet, und es wurden die Peritonealmakrophagen der Tiere auf ihren Aktivierungszustand hin untersucht. Als Maß der Makrophagenaktivierung wurde zum einen die Sekretion der lyosomalen Enzyme (ß-Galactosidase, ß-Glucuronidase, N-Acetyl-ß-D-Glucosaminidase) bestimmt. Auf der anderen Seite konnte in vergleichbaren Makrophagenkulturen die Pinozytose durch die Aufnahme von kolloidalem Gold (^19^8Au) - wie sie dem Fachmann bekannt ist - untersucht werden. Die Höhe des oxidativen Stoffwechsels bei Makrophagen gilt als ein weiteres Maß für ihren Aktivierungszustand. Gemessen wird diese Aktivität unter Zuhilfenahme des Biolumaten durch Bestimmung der Chemolumineszenz.
(§2) Zu diesem Zweck wurden entweder in Petrischalen von 30 mm Durchmesser 3 x 10^6 Makrophagen mit 1 ml TC 199-Kulturmedium oder aber 10^6 Makrophagen mit 100 µl in Rundbogen-Polyäthylen-Röhrchen (zur Bestimmung der Chemolumineszenz) bei 5 % G02 und 37°C kultiviert.
(§3) Nach einstündiger Bebrütung wurden die Kulturen gewaschen, um schwimmende Zellen zu entfernen. Die Chemolumineszenz (Röhrchenkultur) wurde dann direkt bestimmt, während die Petrischalen erneut 24 Stunden bei 37°C bebrütet wurden und danach die Enzym- und Pinozytoseaktivität in den Kulturen bestimmt wurde. Es wurden die nachstehenden Ergebnisse erzielt.
Die parenterale sowie die orale Behandlung von NMRI-Mäusen mit der gemäß Beispiel 8 hergestellten Prüfsubstanz stimuliert die Makrophagenaktivität und hat damit eine immunitätstimulierende Wirkung. So wird der oxidative Stoffwechsel bei Makrophagen mit der Generierung von Sauerstoffradikalen und dem damit verbundenen meßbaren Licht deutlich erhöht. Bei Dosierungen von 25 mg/kg aufwärts kommt es zu einer dosisabhänigen Steigerung der Makrophagenaktivität sowohl bei parenteraler als auch oraler Applikation.
(§4) Wie im Experiment 2 beschrieben, wurden NMRI-Mäuse mit den erfindungsgemäßen Verbindungen behandelt.
(§5) Als Test zur Erfassung der Immunstimulation wurde die Funktion der Makrophagen (Chemolumineszenz und Enzymaktivität) überprüft.
(§6) Tabelle 8 zeigt die relative Wirksamkeit der Prüfsubstanzen bezogen auf die Verbindung aus Beispiel 8, deren maximale Aktivierung (Differenz zwischen Kontrolle und Stimulation) 100 % entspricht. Der Tabelle ist zu entnehmen, daß im Vergleich zu Makrophagen aus unbehandelten Tieren, diese Zellen auch durch alle Prüfsubstanzen in ihrer Chemolumineszenzreaktion stark stimuliert und in ihrem Gehalt an lysosomalen Enzymen deutlich erhöht waren.

[4] = tested on: Candida albicans; assay: Therapeutic treatment of a chronic Candida albicans infection (germ counts in urine and kidneys, kidney necrosis); type: in vivo, Balb/c-Mäuse; conditions: Tag 30, 60 mg/kg i.p. Tag 3-10
Procedure: Bei der therapeutischen Behandlung einer chronischen Candida albicans Infektion wurden weibliche Balb/c-Mäuse (15/Gruppe) am Tag 0 intravenös mit Candida albicans (1 x 10^5 CFU/Maus) infiziert. Nach erfolgter Infektion wurden die Tiere an 8 aufeinanderfolgenden Tagen (Tag 3 - 10) mit jeweils 60 mg/kg der Prüfsubstanz (Verbindung nach Ausführungsbeispiel 8) intraperitoneal behandelt. Den Kontrolltieren wurde physiologische Kochsalzlösung injiziert. An den Tagen 8, 14 und 21 wurden den Tieren Urin entnommen und die Keimzahl bestimmt. Am Tag 30 wurden die Tiere getötet und die Keimzahl und die Nekrosenbildung der Nieren bestimmt. Die Tabelle 6 zeigt, daß die Prüfsubstanz bei therapeutischer Gabe deutlich alle Parameter der chronischen Candida albicans Infektion (Keimzahl in Urin und Nieren und Nekrosenbildung) reduziert und damit die Erkrankung therapeutisch beeinflußt. Während bei den Kontrolltieren sich zu einem hohen Prozentsatz Keime im Urin nachweisen lassen, wird bei den behandelten Tieren die Keimzahl signifikant erniedrigt.
Auch die Keimbesiedlung der Nieren wird durch die Therapie von 63 % auf 27 % reduziert, bei einer gleichzeitigen Verringerung der Nekrosenbildung von 87 % auf 10 %.

[5] = tested on: Maus-Peritonealmakrophagen; assay: Activation of mononuclear phagocytes: release of lysosomal hydrolases (exocytosis) by peritoneal macrophages from treated mice; type: in vivo, NMRI-Mäuse; conditions: for N-Ac-Glu: N-Acetyl-ß-D-Glucosaminidase in culture supernatant; for ß-Gal: ß-Galactosidase in culture supernatant; for ß-Glu: ß-Glucuronidase in culture supernatant
Procedure: as §1, §2, §3
Aus der Tabelle 3 ist zu entnehmen, daß Makrophagen von Kontrollmäusen nur geringe Mengen an lysosomalen Enzymen (ß-Glucuronidase, ß-Galactosidase, N-Acetyl-ß-D-Glucosaminidase) in den Kulturüberstand abgeben. Mononukleare Phagozyten von Mäusen, die parenteral oder oral mit der Prüfsubstanz 72 Stunden behandelt wurde, sezernieren die o.a. sauren Hydrolasen (ß-Glu, ß-Gal, N-Ac-Glu) deutlich mehr und weisen damit eine Dosiswirkungskurve auf, die bei allen gemessenen Enzymen eine Überlegenheit gegenüber den Kontrollen erkennen läßt. Es ist ersichtlich, daß die Prüfsubstanz eine stimulierende Wirkung auf die Makrophagenaktivität besitzt und zur Erhöhung der Enzymfreisetzung beiträgt.
as §4, §5, §6

Cc1nc(SSc2nc(C)c(CC(=O)O)s2)sc1CC(=O)O [Beispiel 8, Bis-(5-Carboxymethyl-4-methyl-thiazol-2-yl)-disulfid]
DTH-Reaktion (SRBC) [1]: 100% | mittlere Überlebenszeit ([2]; 50 mg/kg intraperitoneal on days 3, 5, 7, 9, 11, 13 after amputation of primary tumour): 43 days | mittlere Überlebenszeit ([2]; 100 mg/kg intraperitoneal on days 3, 5, 7, 9, 11, 13 after amputation of primary tumour): 40 days | mittlere Überlebenszeit ([2]; 200 mg/kg intraperitoneal on days 3, 5, 7, 9, 11, 13 after amputation of primary tumour): 35 days | Makrophagenaktivität Chemolumineszenz [3]: 100% | Keimbesiedlung der Nieren ([4]; control 63 %): 27% | Nekrosenbildung ([4]; kidneys, control 87 %): 10% | N-Ac-Glu ([5]; 1 x 25 mg/kg i.p.): 2786 mU/ml | N-Ac-Glu ([5]; 1 x 25 mg/kg p.o.): 1947 mU/ml | N-Ac-Glu ([5]; 1 x 50 mg/kg i.p.): 3315 mU/ml | N-Ac-Glu ([5]; 1 x 50 mg/kg p.o.): 2862 mU/ml | N-Ac-Glu ([5]; 1 x 100 mg/kg i.p.): 4305 mU/ml | N-Ac-Glu ([5]; 1 x 100 mg/kg p.o.): 3676 mU/ml | N-Ac-Glu ([5]; 1 x 200 mg/kg i.p.): 6548 mU/ml | N-Ac-Glu ([5]; 1 x 200 mg/kg p.o.): 5621 mU/ml | Makrophagenaktivität Exozytose ([5]; lysosomal enzyme activity, relative to maximal activation by compound of Beispiel 8 = 100 %, 100 mg/kg i.p.): 100% | ß-Gal ([5]; 1 x 25 mg/kg i.p.): 2584 mU/ml | ß-Gal ([5]; 1 x 25 mg/kg p.o.): 4917 mU/ml | ß-Gal ([5]; 1 x 50 mg/kg i.p.): 11058 mU/ml | ß-Gal ([5]; 1 x 50 mg/kg p.o.): 9179 mU/ml | ß-Gal ([5]; 1 x 100 mg/kg i.p.): 17596 mU/ml | ß-Gal ([5]; 1 x 100 mg/kg p.o.): 13195 mU/ml | ß-Gal ([5]; 1 x 200 mg/kg i.p.): 22351 mU/ml | ß-Gal ([5]; 1 x 200 mg/kg p.o.): 17357 mU/ml | ß-Glu ([5]; 1 x 25 mg/kg i.p.): 1001 mU/ml | ß-Glu ([5]; 1 x 25 mg/kg p.o.): 897 mU/ml | ß-Glu ([5]; 1 x 50 mg/kg i.p.): 1370 mU/ml | ß-Glu ([5]; 1 x 50 mg/kg p.o.): 1133 mU/ml | ß-Glu ([5]; 1 x 100 mg/kg i.p.): 1791 mU/ml | ß-Glu ([5]; 1 x 100 mg/kg p.o.): 1593 mU/ml | ß-Glu ([5]; 1 x 200 mg/kg i.p.): 2136 mU/ml | ß-Glu ([5]; 1 x 200 mg/kg p.o.): 1886 mU/ml
